Patent US12263248B2, “Compounds and compositions for intracellular delivery of therapeutic agents” (ModernaTX, Inc., priority 2018, dated 2025)

Experiments:
[1] = Residual lipid levels in rat liver and spleen (UPLC-MS); type: in vivo; conditions: rats, 48 h; for % Lipid Remaining in liver, 48 h: 2 mpk, assuming 300 g rat and 15 g liver; for % remaining dose in liver, 48 h: intravenous, 2.0 mpk
Summary of the method: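 Rats received a single intravenous dose of lipid nanoparticle composition, and liver tissue was later collected to quantify residual lipid. Weighed tissue was homogenized in Milli-Q water (900 μL per 100 mg tissue) using an Omni probe homogenizer. 50 μL aliquots were mixed with 400 μL spiking solution, vortexed, centrifuged, and analyzed by UPLC on a C8 column with positive-mode ESI detection on a Sciex API5500 mass spectrometer.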

[2] = tested on: hEPO mRNA; test: hEPO expression after intravenous administration to rats; type: in vivo, rat; conditions: for hEPO expression: rat, 6 h, i.v.; for hEPO expression / Lipid/MC3 hEPO conc. ratio 2 mpk: 2 mpk; for Lipid/MC3 hEPO conc. ratio 0.2 mpk / Lipid/MC3 hEPO conc. ratio 2 mpk: rats, intravenous, 6 hours
Summary of the method: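 Rats dosed intravenously once with nanoparticle composition, 0.2 or 2.0 mpk, formulated by the standard MC3 method. Tail-vein blood sampled at 6 h or at time points from 0.25 to 48 h. hEPO measured by ELISA.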

[3] = Clinical chemistry and hematology in rat, 2 mpk i.v., 48 h; type: in vivo; conditions: intravenous, 48 h post dose
Description: Sample formulations of nanoparticle compositions including different lipids were administered intravenously to rat at a dose of 2 mpk. The expression of various clinical markers was evaluated at 48 h post dose and compared to that induced by administration of MC3 formulations or phosphate buffered saline (PBS).

[4] = tested on: hEPO mRNA; test: hEPO expression and cytokine induction after intravenous administration to mice; type: in vivo
Description: The expression of hEPO and cytokine induction in mice intravenously administered a nanoparticle composition at a dose of 0.5 mpk were measured at 3, 6, and 24 hours. […] The expression of hEPO in mice intramuscularly administered a nanoparticle composition from Table 1B at a dose of 0.01 mpk were measured at 3, 6, and 24 hours.
Blood collection and analysis for hEPO. Blood was collected from mice or rats via the tail vein and hEPO concentrations were determined using a hEPO ELISA assay.

[5] = tested on: hEPO mRNA; test: hEPO expression after subcutaneous administration to mice; type: in vivo, female CD-1 mice; conditions: 0.5 mpk
Summary of the method: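 Lipid nanoparticle formulations carrying hEPO or luciferase mRNA were given subcutaneously at 0.5 mpk to female CD-1 mice. Whole-body luminescence imaging was done at 3, 6 and 24 h. Liver, spleen and injection-site expression were assessed ex vivo at 24 h.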

[6] = mice, intravenous, 0.5 mpk, 6 h

SMILES | % Lipid Remaining in liver, 48 h [1] [%] | % remaining dose in liver, 48 h [1] [%] | hEPO expression [2] [pg/mL] | Lipid/MC3 hEPO conc. ratio 0.2 mpk [2] | Lipid/MC3 hEPO conc. ratio 2 mpk [2] | Concentration Alanine aminotransferase [3] | Concentration Aspartate aminotransferase [3] | Concentration Lymphocytes [3] | Concentration Monocytes [3] | Concentration Neutrophils [3] | other results
CCCCCC/C=C\COC(=O)CCCCCCCN(CCO)CCCCCCCC(=O)OC(CCCCCCCC)CCCCCCCC [Compound 24, Heptadecan-9-yl (Z)-8_((2-hydroxyethyl) (8-(non-2-en-1-yloxy)-8-oxooctyl)amino)octanoate] | 0.016 | <1 | 1.44e+07 | 1.75 | 1.01 | 51.5 | 90 | 14100 | 1834 | 1790.5 | 
CCCCC/C=C\C/C=C\CCCCCCCCN(CCO)CCCCCCCC(=O)OC(CCCCCCCC)CCCCCCCC [Compound 6, Heptadecan-9-yl 8-((2-hydroxyethyl)((9Z,12Z)-octadeca-9,12-dien-1-yl)amino)octanoate] |  |  |  |  |  |  |  |  |  |  | hEPO expression and average total flux compared with MC3 ([4]; Table 12 comparison, in words): outperform MC3; hEPO concentrations compared with MC3 formulations ([4]; mice, i.v., 0.5 mpk, 3, 6 and 24 hours): higher hEPO concentrations than MC3 formulations; hEPO expression 3 h ([4]; mice, intravenous, 0.5 mpk, 3 h): 2.31e+06 pg/mL; Average hEPO concentration (pg/ml, 6 h) [4, 6]: 3.17e+06 pg/mL; Cytokine expression IL-6 (6 h) [4, 6]: 10.15 pg/mL; Cytokine expression IP-10 (6 h) [4, 6]: 116.66 pg/mL; hEPO expression 6 h [4, 6]: 3.17e+06 pg/mL; Fold increase in hEPO concentration relative to MC3 ([4]; mice, intravenous, 0.5 mpk, 6 h, Table 12): 1.73; hEPO expression 24 h ([4]; mice, intravenous, 0.5 mpk, 24 h): 1.11e+06 pg/mL
CCCCCCCCCOC(=O)CCCCCCCN(CCO)CCCCCCCOC(=O)C(CCCCCCCC)CCCCCCCC [Compound 30, 7-((2-Hydroxyethyl)(8-(nonyloxy)-8-oxooctyl)amino)heptyl 2-octyldecanoate] | <0.01 | <1 | 1.63e+07 | 1.87 | 1.14 | 56 | 95 | 10408.5 | 877 | 3195 | hEPO expression Lipid/Compound 18 ratio, 6 hr. ([5]; 6 hr.): 1.35; hEPO expression Lipid/MC3 ratio, 6 hr. ([5]; 6 hr.): 6.53; hEPO expression Lipid/Compound 18 ratio, AUC ([5]; AUC): 1.27; hEPO expression Lipid/MC3 ratio, AUC ([5]; AUC): 6.38
